Measured values published in patent US12655113B2, “Biphenyl compounds as SOCE modulators, compositions and uses thereof” (Università degli Studi del Piemonte Orientale “Amedeo …, priority 2020, dated 2026).

Tested on: tBHQ-induced calcium influx into Hek cells (SOCE)
Assay: Store-operated calcium entry (SOCE) by Fura-2 Ca2+ measurements in Hek cells
Type: cell-based, Human
Conditions: for Calcium response to SOCE-modulators (regulation of SOCE): FIG. 2A, HEK cells, stores depleted with 50 μM tBHQ, compound added with 2 mM Ca2+
[1] = Homo sapiens, HEK293, Hek cells
[2] = Homo sapiens, HEK293, Hek cells, 3 μM

For `COC(=O)c1cc(-n2cc(-c3ccc(-c4cc(OC)ccc4OC)cc3)nn2)ccn1` [Compound 47, methyl 4-(4-(2′,5′-dimethoxy-[1,1′-biphenyl]-4-yl)-1H-1,2,3-triazol-1-yl)picolinate], the inhibition at 10 µM [1] was 73.5 ± 1.4%.

With `COc1ccccc1-c1ccc(-c2cn(-c3cccc(C(=O)O)c3)nn2)cc1` [Compound 35, 3-(4-(2′-methoxy-[1,1′-biphenyl]-4-yl)-1H-1,2,3-triazol-1-yl)benzoic acid] the inhibition at 10 µM [1] was 59.6 ± 5.43%.

Compound `COc1cccc(-c2ccc(-c3cn(-c4cccc(C(=O)O)c4)nn3)cc2)c1OC` [Compound 42, 3-(4-(2′,3′-dimethoxy-[1,1′-biphenyl]-4-yl)-1H-1,2,3-triazol-1-yl)benzoic acid] has an inhibition at 3 µM [2] of 93.2 ± 5.1%.

Compound `O=C(O)c1cccc(-c2cn(-c3ccc(-c4ccc5c(c4)OCO5)cc3)nn2)c1` [Compound 17, 3-(1-(4-(benzo[d][1,3]dioxol-5-yl)phenyl)-1H-1,2,3-triazol-4-yl)benzoic acid] has an inhibition at 10 µM [1] of 37.3 ± 4.2%.

For `COc1ccc(OC)c(-c2ccc(-n3cc(-c4ccncc4F)nn3)cc2)c1` [Compound 26, 4-(1-(2′,5′-dimethoxy-[1,1′-biphenyl]-4-yl)-1H-1,2,3-triazol-4-yl)-3-fluoropyridine], the “Calcium response to SOCE-modulators (regulation of SOCE)” value was “no activity”.

With `COc1ccc(OC)c(-c2ccc(-n3cc(-c4ccnc(C(=O)O)c4)nn3)cc2)c1` [Compound 25, 4-(1-(2′,5′-dimethoxy-[1,1′-biphenyl]-4-yl)-1H-1,2,3-triazol-4-yl)picolinic acid] the inhibition at 10 µM [1] was 79.9 ± 4.1%.

With `CSc1cccc(-c2ccc(-n3cc(-c4cccc(C(=O)O)c4)nn3)cc2)c1` [Compound 11, 3-(1-(3′-(methylthio)-[1,1′-biphenyl]-4-yl)-1H-1,2,3-triazol-4-yl)benzoic acid] the inhibition at 10 µM [1] was 72.6 ± 13.6%.

`COc1cc(OC)cc(-c2ccc(-c3cn(-c4cccc(C(=O)O)c4)nn3)cc2)c1` [Compound 38, 3-(4-(3′,5′-dimethoxy-[1,1′-biphenyl]-4-yl)-1H-1,2,3-triazol-1-yl)benzoic acid] showed an inhibition at 10 µM [1] of 86.2 ± 4.2%.

With `COc1ccc(-c2ccc(-c3cn(-c4cccc(C(=O)O)c4)nn3)cc2)c(OC)c1` [Compound 37, 3-(4-(2′,4′-dimethoxy-[1,1′-biphenyl]-4-yl)-1H-1,2,3-triazol-1-yl)benzoic acid] the inhibition at 10 µM [1] was 77.1 ± 0.9%.

Work on `COc1ccc(OC)c(-c2ccc(-c3cn(-c4cccc(C(=O)O)c4)nn3)cc2)c1` [Compound 46, 3-(4-(2′,5′-dimethoxy-[1,1′-biphenyl]-4-yl)-1H-1,2,3-triazol-1-yl)benzoic acid] yielded an inhibition at 3 µM [2] of 78.7 ± 3.8% and an inhibition at 10 µM [1] of 87.8 ± 2.9%.

`COc1cccc(-c2ccc(-c3cn(-c4cccc(C(=O)O)c4)nn3)cc2)c1` [Compound 36, 3-(4-(3′-methoxy-[1,1′-biphenyl]-4-yl)-1H-1,2,3-triazol-1-yl)benzoic acid] showed an inhibition at 10 µM [1] of 87 ± 1.1%.

Compound `COc1ccc(OC)c(-c2ccc(-n3cc(-c4cccc(C(=O)O)c4)nn3)cc2)c1` [Compound 24, 3-(1-(2′,5′-dimethoxy-[1,1′-biphenyl]-4-yl)-1H-1,2,3-triazol-4-yl)benzoic acid] has an inhibition at 3 µM [2] of 85.8 ± 6.5%.

In the case of `COc1ccc(-c2ccc(-n3cc(-c4cccc(C(=O)O)c4)nn3)cc2)c(OC)c1` [Compound 15, 3-(1-(2′,4′-dimethoxy-[1,1′-biphenyl]-4-yl)-1H-1,2,3-triazol-4-yl)benzoic acid], the inhibition at 10 µM [1] is reported as 68.1 ± 4.2%.

For `COc1cccc(-c2ccc(-n3cc(-c4cccc(C(=O)O)c4)nn3)cc2)c1OC` [Compound 20, 3-(1-(2′,3′-dimethoxy-[1,1′-biphenyl]-4-yl)-1H-1,2,3-triazol-4-yl)benzoic acid], the “Calcium response to SOCE-modulators (regulation of SOCE)” value was “negatively regulate SOCE”.

`COc1ccccc1-c1ccc(-n2cc(-c3cccc(C(=O)O)c3)nn2)cc1` [Compound 12, 3-(1-(2′-methoxy-[1,1′-biphenyl]-4-yl)-1H-1,2,3-triazol-4-yl)benzoic acid] was tested, and the inhibition at 10 µM [1] was 47.2 ± 7.2%.

Work on `COc1cccc(OC)c1-c1ccc(-c2cn(-c3cccc(C(=O)O)c3)nn2)cc1` [Compound 44, 3-(4-(2′,6′-dimethoxy-[1,1′-biphenyl]-4-yl)-1H-1,2,3-triazol-1-yl)benzoic acid] yielded an activity at 3 µM (Homo sapiens, HEK293, Hek cells, 3 μM, read-out: Residual activity of SOCE) of 122.8 ± 0.89%.

Compound `COc1cc(OC)cc(-c2ccc(-n3cc(-c4cccc(C(=O)O)c4)nn3)cc2)c1` [Compound 16, 3-(1-(3′,5′-dimethoxy-[1,1′-biphenyl]-4-yl)-1H-1,2,3-triazol-4-yl)benzoic acid] has an inhibition at 10 µM [1] of 77.4 ± 4.7%.
